Source: patent US20240199676A1, “ANTIVIRAL COMPOUNDS AND METHODS OF MAKING AND USING THE SAME” (Gilead Sciences, Inc., priority 2022, published 2024)
Like-named read-outs stand apart in the source and are kept apart here.

Legend:
Assay type in all cases: cell-based
[1] = tested on: Respiratory syncytial virus recombinant with luciferase (RSV-Luc5) in HEp-2 cells; assay: HEp-2 RSV-Luc5 384-well Assay (EC50 RSVFLUC Hep2-384 v2, Ex. V); settings: human respiratory syncytial virus, HEp-2, 72 h, read-out: EC50 RSV FLuc Hep-2 384 V2 (per Ex. V)
Procedure, shortened: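 HEp-2 cells (4,000/well) with 10-point 1:3 compound dilutions were infected with RSV-Luc5 at MOI 0.5 and incubated 3 days at 37 °C. Replication was read by One-Glo luminescence and normalized to remdesivir (0%) and DMSO (100%) controls. EC50 is the concentration reducing replication by 50%, from non-linear regression.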

[2] = tested on: Human Rhinovirus 14 (HRV14) in H1-HeLa cells; assay: H1-HeLa HRV-CTG 384-well Assay (Ex. Y), HRV14; settings: Rhinovirus B, 96 h, read-out: EC50 H1-HeLa_HRV14_HRV-CTG 384-well Assay (per Ex Y)
From the text: (§1) Example Y: H1-HeLa HRV-CTG 384-well Assay
(§2) H1-Hela cell line (ATCC, Manassas, VA, Cat #CRL-1958) was maintained in Dulbecco's […] (DMEM) (Corning, New York, NY, Cat #15-018CM) supplemented with 10% fetal bovine serum (FBS) (Hyclone, Logan, UT, Cat #SH30071-03), and 1× Penicillin-Streptomycin-L-Glutamine (Corning, New York, NY, Cat #30-009-CI). Cells were passaged 2 times per week to maintain sub-confluent densities and were used for experiments at passage 5-30. The Human Rhinovirus 1B (HRV1B) (ATCC, Manassas, VA, Cat #VR-1645) , Human Rhinovirus 14 (HRV14) (ATCC, Manassas, VA, Cat #VR-284), and Human Rhinovirus 16 (HRV16) (ATCC, Manassas, VA, Cat #BR-283) was obtained through ATCC. Viral infection was monitored by determining viability of H1-HeLa cells as described below.
(§3) Test molecules are prepared in 100% DMSO in 384-well polypropylene plates (Greiner, Monroe, NC, Cat #784201) with 8 compounds per plate in grouped replicates of 4 at 10 serially diluted concentrations (1:3). The serially diluted compounds were transferred to low dead volume Echo plates (Labcyte, Sunnyvale, CA, Cat #LP-0200).
(§4) The test compounds were spotted to 384-well assay plates (Greiner, Monroe, NC, Cat#781091) at 200 nL per well using an Echo acoustic dispenser (Labcyte, Sunnyvale, CA). H1-HeLa cells were harvested and suspended in DMEM (supplemented with 2% FBS and 1× Penicillin-Streptomycin-L-Glutamine) and seeded to the pre-spotted assay plates at 5,000 cells per well in 30 μL. HRV1B, HRV14, and HRV16 was diluted in DMEM (supplemented with 2% FBS and 1× Penicillin-Streptomycin-L-Glutamine) at 97.1 million Infectious Units (IU) per mL, 151 million IU per mL and 221 million IU per mL respectively. 10 μL of virus per well was added to the assay plates containing cells and compounds, for an MOI of 0.5, 1.0, and 0.25 respectively. The assay plates were incubated for 4 days at 37° C. and 5% CO2. At the end of incubation, Celltiter-Glo (Promega, Madison, WI, Cat #(Ga7573) was prepared. The assay plates and Celltiter-Glo reagent were equilibrated to room temperature for at least 15 minutes. 40 μL per well of Celltiter-Glo reagent was added and the plates were incubated at room temperature for 15 minutes before reading the luminescence signal on an EnVision multimode plate reader (Perkin Elmer, Waltham, MA). Rupintrivir was used as positive control and DMSO was used as negative control. Values were normalized to the positive and negative controls (as 0% and 100% replication, respectively) and data was fitted using non-linear regression analysis by Gilead's dose response tool. The EC50 value for each compound was defined as the concentration reducing viral replication by 50%.

[3] = tested on: Human Rhinovirus 16 (HRV16) in H1-HeLa cells; assay: H1-HeLa HRV-CTG 384-well Assay (Ex. Y), HRV16; settings: Rhinovirus A, 96 h, read-out: EC50 H1-HeLa_HRV16_HRV-CTG 384-well Assay (per Ex. Y)
From the text: as §1, §2, §3, §4

[4] = tested on: Human Rhinovirus 1B (HRV1B) in H1-HeLa cells; assay: H1-HeLa HRV-CTG 384-well Assay (Ex. Y), HRV1B; settings: Rhinovirus A, 96 h, read-out: EC50 H1-HeLa_HRV1B_HRV-CTG 384-well Assay (per Ex. Y)
From the text: as §1, §2, §3, §4

[5] = H1-HeLa cells, HRV14 MOI 1.0, 4 days, Celltiter-Glo
[6] = H1-HeLa cells, HRV16 MOI 0.25, 4 days, Celltiter-Glo
[7] = H1-HeLa cells, HRV1B MOI 0.5, 4 days, Celltiter-Glo

Row | Compound | EC50 [1] | EC50 [2, 5] | EC50 [3, 6] | EC50 [4, 7] | EC50 ([2]; HRV14, H1-HeLa) | EC50 ([3]; HRV16, H1-HeLa) | EC50 ([4]; HRV1B, H1-HeLa)
1 | CC(=O)OC[C@@]1(C#N)O[C@@H](c2ccc3c(N)ncnn23)[C@H](OC(C)=O)[C@@H]1OC(C)=O [Compound 28, (2R,3S,4S,5S)-2-(acetoxymethyl)-5-(4-aminopyrrolo[2,1-f][1,2,4]triazin-7-yl)-2-cyanotetrahydrofuran-3,4-diyl diacetate] | 15.9 µM | 19.8 µM | 23.9 µM | 9.45 µM |  |  | 
2 | CC(C)(CF)C(=O)OC[C@@]1(C#N)O[C@@H](c2ccc3c(N)ncnn23)[C@H](O)[C@@H]1O [Compound 29, ((2R,3S,4R,5S)-5-(4-aminopyrrolo[2,1-f][1,2,4]triazin-7-yl)-2-cyano-3,4-dihydroxytetrahydrofuran-2-yl)methyl 3-fluoro-2,2-dimethylpropanoate] | 28.8 µM | 16.9 µM | 22.7 µM | 9.37 µM |  |  | 
3 | CC(C)C(=O)Nc1ncnn2c([C@@H]3O[C@](C#N)(CO)[C@@H](O)[C@H]3O)ccc12 [Compound 30, N-(7-((2S,3R,4S,5R)-5-cyano-3,4-dihydroxy-5-(hydroxymethyl)tetrahydrofuran-2-yl)pyrrolo[2,1-f][1,2,4]triazin-4-yl)isobutyramide] | > 50 µM | 36.2 µM | 50 µM | 27.5 µM |  |  | 
4 | N#C[C@]1(COC(=O)C2CC3(CCC3)C2)O[C@@H](c2ccc3c(N)ncnn23)[C@H](O)[C@@H]1O [Compound 32, ((2R,3S,4R,5S)-5-(4-aminopyrrolo[2,1-f][1,2,4]triazin-7-yl)-2-cyano-3,4-dihydroxytetrahydrofuran-2-yl)methyl spiro[3.3]heptane-2-carboxylate] | 16.4 µM | 5.14 µM | 4.56 µM | 3.18 µM |  |  | 
5 | CC1(CC(=O)OC[C@@]2(C#N)O[C@@H](c3ccc4c(N)ncnn34)[C@H](O)[C@@H]2O)CCC1 [Compound 33, ((2R,3S,4R,5S)-5-(4-aminopyrrolo[2,1-f][1,2,4]triazin-7-yl)-2-cyano-3,4-dihydroxytetrahydrofuran-2-yl)methyl 2-(1-methylcyclobutyl)acetate] | 23.4 µM | 20.8 µM | 50 µM | 35.1 µM |  |  | 
6 | [H]/N=c1/c2ccc([C@@H]3O[C@](C#N)(CO)[C@@H](O)[C@H]3O)n2ncn1COC(=O)C(C)C [Compound 34, (7-((2S,3R,4S,5R)-5-cyano-3,4-dihydroxy-5-(hydroxymethyl)tetrahydrofuran-2-yl)-4-iminopyrrolo[2,1-f][1,2,4]triazin-3(4H)-yl)methyl isobutyrate] | > 50 µM | 50 µM | 50 µM | 28.7 µM |  |  | 
7 | CCC(C)(C)C(=O)OC[C@@]1(C#N)O[C@@H](c2ccc3c(N)ncnn23)[C@H](O)[C@@H]1O [Compound 35, ((2R,3S,4R,5S)-5-(4-aminopyrrolo[2,1-f][1,2,4]triazin-7-yl)-2-cyano-3,4-dihydroxytetrahydrofuran-2-yl)methyl 2,2-dimethylbutanoate] | 24.4 µM | 24.6 µM | 48.2 µM | 19.2 µM |  |  | 
8 | CC(C)(C)CCC(=O)OC[C@@]1(C#N)O[C@@H](c2ccc3c(N)ncnn23)[C@H](O)[C@@H]1O [Compound 36, ((2R,3S,4R,5S)-5-(4-aminopyrrolo[2,1-f][1,2,4]triazin-7-yl)-2-cyano-3,4-dihydroxytetrahydrofuran-2-yl)methyl 4,4-dimethylpentanoate] | 11.8 µM | 6.51 µM | 8.03 µM | 3.1 µM |  |  | 
9 | CC[C@@H](C)C(=O)OC[C@@]1(C#N)O[C@@H](c2ccc3c(N)ncnn23)[C@H](O)[C@@H]1O [Compound 37, ((2R,3S,4R,5S)-5-(4-aminopyrrolo[2,1-f][1,2,4]triazin-7-yl)-2-cyano-3,4-dihydroxytetrahydrofuran-2-yl)methyl (R)-2-methylbutanoate] | 14.8 µM | 11.9 µM | 9.78 µM | 5.71 µM |  |  | 
10 | N#C[C@]1(COC(=O)Cc2ccccc2)O[C@@H](c2ccc3c(N)ncnn23)[C@H](O)[C@@H]1O [Compound 38, ((2R,3S,4R,5S)-5-(4-aminopyrrolo[2,1-f][1,2,4]triazin-7-yl)-2-cyano-3,4-dihydroxytetrahydrofuran-2-yl)methyl 2-phenylacetate] | 18.9 µM |  |  |  | 6.25 µM | 8.44 µM | 3.12 µM
